Molecules are shown by their SMILES.

T1 sequence (Q9Y4B6 1077-1390): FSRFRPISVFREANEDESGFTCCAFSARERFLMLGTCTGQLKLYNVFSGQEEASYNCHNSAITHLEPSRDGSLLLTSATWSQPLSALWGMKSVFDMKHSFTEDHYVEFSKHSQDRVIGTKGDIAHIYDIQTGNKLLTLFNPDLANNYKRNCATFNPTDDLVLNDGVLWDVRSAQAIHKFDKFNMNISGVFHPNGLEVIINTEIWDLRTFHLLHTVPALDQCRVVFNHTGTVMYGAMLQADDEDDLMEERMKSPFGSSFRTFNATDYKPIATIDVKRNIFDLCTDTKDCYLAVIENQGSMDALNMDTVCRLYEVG

The first test concerns the target T1, DCAF1 WD40 domain (residues 1077-1390) (Homo sapiens, UniProt Q9Y4B6).
T1 construct: DCAF1 WD40 domain (residues 1077-1390)
Kind of test: DCAF1 binding assay by SPR (Biacore 8K+), DCAF1-3 KD. Particulars: 25 °C, read-out: DCAF1-3 SPR (KD). On the technique in general: SPR reads the build-up and loss of mass on a sensor chip optically.
In the case of `Oc1ccc(N2CCC[C@@H](Nc3cc(N4CCCCC4)ccn3)C2)cc1` [I-593], the equilibrium dissociation constant (Kd) (commonly the concentration at which binding is half-saturated) is less than 10 µM. The same measure, in the same setting: under `O=C(c1cc(N2CCCCC2)ccn1)[C@H]1CCCN(c2cccc(F)c2)C1` [I-613] stands 10 to 100 µM; under `Fc1cccc(N2CCC[C@@H](Nc3cc(N4CCCCC4)cc4c3CNC4)C2)c1` [I-1050], 10 to 100 µM; under `CC(C)Cn1cc(N2CCC[C@@H](Nc3cc(N4CCOCC4)ccn3)C2)cn1` [I-421], greater than 200 µM. `C=CC(=O)N(C)CCCN(C)c1ccnc(N[C@@H]2CCCN(c3cccc(F)c3)C2)c1` [I-462]: the Kd lay in the range of 10 to 100 µM.

For `NC(=O)[C@@H]1[C@H](Nc2cc(N3CCOCC3)ccn2)CCCN1c1cccc(F)c1` [I-278], the equilibrium dissociation constant (Kd) was greater than 200 µM.

On to `OCCC[C@@H]1C[C@H]2[C@@H](CCCN2c2cccc(F)c2)N1c1cc(N2CCCCC2)ccn1` [I-831], for which the Kd lay in the range of 10 to 100 µM.

As to `C[C@@H]1CC[C@H](O)CN1c1ccnc(N2CC[C@@H]3[C@H]2CCCN3c2cccc(F)c2)c1` [I-824], the Kd was less than 10 µM. In the case of `C=CC(=O)Nc1ccnc(N[C@@H]2CCCN(c3cccc(F)c3)C2)c1` [I-447], the Kd fell in the range of 10 to 100 µM. Same read-out and setting: with `CNC1CN(C(=O)C[C@H](NC(=O)c2cn[nH]c2-c2c(F)ccc(F)c2C)c2cccc(Cl)c2)C1` [I-880] the figure was less than 10 µM. Regarding `CN(C)CC[C@H](c1ccc(N2CCC[C@@H](Nc3cc(N4CCOCC4)ccn3)C2)cc1)c1ccccn1` [I-783], the dissociation constant Kd was greater than 200 µM. Same read-out and setting: under `Fc1cccc(N2CCC[C@]3(Cc4cnc(N5CCOCC5)cc4N3)C2)c1` [I-213] stands greater than 200 µM; under `Fc1cccc(N2CCCC(Nc3nccc(N4CCOCC4)n3)C2)c1` (stereo not drawn) [I-22], greater than 200 µM; under `Fc1cccc(N2CCC[C@@H](Nc3cc([C@H]4CCCCO4)ccn3)C2)c1` [I-95], greater than 200 µM.

Turning to `C=CC(=O)NCCCCN1CCN(c2ccnc(N(CCCOCCOCCOCCOCCNC(=O)C[C@@H]3N=C(c4ccc(Cl)cc4)c4c(sc(C)c4C)-n4c(C)nnc43)[C@@H]3CCCN(c4cccc(F)c4)C3)c2)CC1` [I-906], the equilibrium dissociation constant (Kd) was 100 to 200 µM.

For `NC(=O)C[C@H](NC(=O)c1c[nH]nc1-c1c(F)cccc1F)c1cccc(Cl)c1` [I-207], the equilibrium dissociation constant (Kd) was greater than 200 µM. Same read-out and setting: under `Fc1cccc(N2CCC[C@@H](n3ccc4c(N5CCOCC5)ccnc43)C2)c1` [I-49] stands 100 to 200 µM; under `C=CC(=O)N1CCN(c2ccnc(N[C@@H]3CCCN(c4cccc(F)c4)C3)c2)CC1C(F)(F)F` (stereo partly drawn) [I-655], greater than 200 µM; under `NC(=O)C[C@H](NC(=O)c1nc(N)[nH]c1-c1ccccc1F)c1cccc(Cl)c1` [I-220], greater than 200 µM. Same read-out and setting: under `Fc1cccc(N2CCC[C@@H]3[C@H]2CCN3c2cc(N3CCCCCC3)ccn2)c1` [I-635] stands 10 to 100 µM; under `Cc1c(F)ccc(F)c1-c1c(C(=O)N[C@@H](CC(N)=O)c2cccc(Cl)c2)cn(C)c1C(=O)c1ccc(O)cc1` [I-1030], less than 10 µM; under `Fc1cccc(N2CCC[C@@H](Nc3cc(N4CCNCC4)ncn3)C2)c1` [I-373], greater than 200 µM. Same read-out and setting: with `Cc1cc2nccn2cc1N1CCC[C@@H](Nc2cc(N3CCOCC3)ccn2)C1` [I-765] the figure was greater than 200 µM; with `O=C(O)[C@@H]1[C@H](Nc2cc(N3CCOCC3)ccn2)CCCN1c1cccc(F)c1` [I-287], greater than 200 µM; with `O=c1[nH]cc(C2=CCOCC2)cc1N[C@@H]1CCCN(c2cccc(F)c2)C1` [I-647], 10 to 100 µM. With `Cc1cccc(-c2[nH]ncc2C(=O)N[C@@H](CC(N)=O)c2cccc(Cl)c2)c1F` [I-515], the equilibrium dissociation constant (Kd) was 10 to 100 µM. The same measure, in the same setting: under `Oc1ccc(N2CCC[C@@H](Nc3cncc(N4CCOCC4)c3)C2)cc1` [I-567] stands 10 to 100 µM. Same read-out and setting: under `COCCN(c1cc(N2CCCCC2)ccn1)[C@@H]1CCCN(c2cccc(F)c2)C1` [I-596] stands 10 to 100 µM; under `CS(=O)(=O)CN(c1cc(N2CCOCC2)ccn1)[C@@H]1CCCN(c2cccc(F)c2)C1` [I-258], greater than 200 µM; under `Cc1sc2c(c1C)C(c1ccc(Cl)cc1)=N[C@@H](CC(=O)NCCCCCCCCCCCCC(=O)c1[nH]cc(C(=O)C[C@@H](CC(N)=O)c3cccc(Cl)c3)c1-c1ccccc1F)c1nnc(C)n1-2` [I-892], greater than 200 µM.

With `O=C(N[C@H](c1cccc(Cl)c1)c1ccon1)c1c[nH]nc1-c1ccccc1F` [I-232], the Kd is greater than 200 µM. Same read-out and setting: with `CCN1CCN(c2cc(N[C@@H]3CCCN(c4cccc(F)c4)C3)ncn2)CC1` [I-375] the figure was greater than 200 µM. On the same count and under the same terms, with `Fc1cccc(N2CCC[C@H]3[C@@H]2CCN3c2cc(N3CC4CCC(C4)C3)ccn2)c1` [I-605] the figure was 10 to 100 µM.

As for `NC(=O)N1Cc2ccc(N3CCC[C@@H]4[C@H]3CCN4c3cc(N4CCCCC4)ccn3)cc2C1` [I-957], the Kd was in the range of 10 to 100 µM. The same measure, in the same setting: under `CCCCCCC[C@@H]1CCCN(c2ccnc(N3CC[C@@H]4[C@H]3CCCN4c3cccc(F)c3)c2)C1` [I-726] stands greater than 200 µM. On to `COCCOCCOCC[C@H]1CN(c2cc(N3CCCCC3)ccn2)[C@@H]2CCCN(c3cccc(F)c3)[C@H]12` [I-951], for which the Kd is less than 10 µM.

As for `Cc1sc(N2CCC[C@@H](Nc3cc(N4CCOCC4)ccn3)C2)nc1-c1ccccc1` [I-411], the Kd was greater than 200 µM. Same read-out and setting: under `Fc1cccc(N2CCC[C@H](Cc3cc(N4CCOCC4)ccn3)C2)c1` [I-98] stands greater than 200 µM. The same measure, in the same setting: under `O=C1Cc2cc(N3CCC[C@@H](Nc4cc(N5CCOCC5)ccn4)C3)ncc2N1` [I-425] stands greater than 200 µM.

Regarding `NC(=O)C[C@H](NC(=O)c1c[nH]nc1-c1cc(F)ccc1F)c1cccc(Cl)c1` [I-267], the Kd was greater than 200 µM. Still for that read-out and setting: under `Cc1sc2c(c1C)C(c1ccc(Cl)cc1)=N[C@@H](CC(=O)NCCCCCCCCCCCCCCC1CCN(c3ccnc(N4CC[C@@H]5[C@H]4CCCN5c4cccc(F)c4)c3)CC1)c1nnc(C)n1-2` [I-902] stands greater than 200 µM. On the same count and under the same terms, with `C=CC(=O)N1CC[C@H](N(C)c2ccnc(N[C@@H]3CCCN(c4cccc(F)c4)C3)c2)C1` [I-477] the figure was greater than 200 µM; with `Cc1c(F)ccc(F)c1-c1[nH]ncc1C(=O)N[C@@H](CC(N)=O)c1ccc(F)c(Cl)c1` [I-819], 10 to 100 µM. On the same count and under the same terms, with `c1cc(N2CCOCC2)cc(N[C@@H]2CCCN(c3nccc(N4CCCC4)n3)C2)n1` [I-678] the figure was 10 to 100 µM. `C=CC(=O)NC1CCN(c2ccnc(N[C@@H]3CCCN(c4cccc(F)c4)C3)c2)C1` (stereo partly drawn) [I-456]: the equilibrium dissociation constant (Kd) is greater than 200 µM.

As for `Cc1cccc(-c2[nH]ncc2C(=O)N[C@@H](CC(N)=O)c2cccc(Cl)c2)c1` [I-102], the equilibrium dissociation constant (Kd) was 10 to 100 µM. The same measure, in the same setting: with `N#Cc1cnc(N2CCOCC2)cc1N[C@@H]1CCCN(c2cccc(F)c2)C1` [I-408] the figure was greater than 200 µM; with `NC[C@@H]1CCN(c2cccc(F)c2)C[C@@H]1Nc1cc(N2CCCCC2)ccn1` [I-1045], 100 to 200 µM. The same measure, in the same setting: with `Cc1cc(Cl)cc([C@@H](CC(N)=O)NC(=O)c2cn[nH]c2-c2c(C)cccc2F)c1` [I-738] the figure was less than 10 µM. In the case of `NC(=O)C[C@H](NC(=O)C1=C(c2c(F)cccc2F)CN(Cc2ccccc2)C1)c1cccc(Cl)c1` [I-587], the Kd is 10 to 100 µM. Turning to `NC(=O)C[C@H](NC(=O)c1cn[nH]c1-c1ccccc1F)c1ccc(O)cc1` [I-130], the dissociation constant Kd was greater than 200 µM.

With `C[C@@H]1CCCN(c2ccnc(N[C@@H]3CCCN(c4cccc(F)c4)C3)c2)C1` [I-552], the Kd lay within 10 to 100 µM.

In the case of `Fc1cccc(N2CCNC(Cc3cc(N4CCOCC4)ncn3)C2)c1` (stereo not drawn) [I-225], the dissociation constant (Kd) was greater than 200 µM. `NC(=O)C[C@H](NC(=O)c1c[nH]c(-c2ccccc2)c1-c1ccccc1F)c1cccc(Cl)c1` [I-594]: the equilibrium dissociation constant (Kd) was less than 10 µM. For `COCCC(=O)c1[nH]cc(C(=O)N[C@@H](CC(N)=O)c2cccc(Cl)c2)c1-c1ccccc1F` [I-524], the equilibrium dissociation constant (Kd) was less than 10 µM. As to `Cc1[nH]cc(C(=O)N[C@@H](CC(N)=O)c2cccc(Cl)c2)c1-c1c(F)cccc1F` [I-585], the dissociation constant (Kd) was less than 10 µM. On the same count and under the same terms, under `Cc1sc2c(c1C)C(c1ccc(Cl)cc1)=N[C@@H](CC(=O)NCCOCCOCCOCCOCCOCC(=O)c1[nH]cc(C(=O)N[C@@H](CC(N)=O)c3cccc(Cl)c3)c1-c1ccccc1F)c1nnc(C)n1-2` [I-897] stands less than 10 µM; under `Fc1cccc(N2CCC[C@@H](N(c3ccccc3)c3cc(N4CCOCC4)ccn3)C2)c1` [I-273], greater than 200 µM. The same measure, in the same setting: under `OCCCCCCCCC1CCN(c2ccnc(N3CC[C@@H]4[C@H]3CCCN4c3cccc(F)c3)c2)CC1` [I-977] stands 10 to 100 µM. Same read-out and setting: under `C=CC(=O)NCCCN1CCN(c2ccnc3c2CCN3C2CCCN(c3cccc(F)c3)C2)CC1` (stereo not drawn) [I-845] stands 10 to 100 µM; under `NC(=O)C[C@H](NC(=O)c1c[nH]c(C(=O)c2ccccc2)c1-c1c(F)c(F)cc(F)c1F)c1cccc(Cl)c1` [I-949], less than 10 µM. On to `Cc1cccc(F)c1-c1[nH]ncc1C(=O)N[C@H](CC(N)=O)c1cc(Cl)cc(Cl)c1` [I-736], for which the Kd is less than 10 µM. Still for that read-out and setting: with `Fc1cccc(N2C3CC[C@H]2CC[C@H]3Nc2nccc(N3CCOCC3)n2)c1` (stereo in doubt) [I-60] the figure was 100 to 200 µM. The same measure, in the same setting: under `NC(=O)C[C@H](NC(=O)c1[nH]nc(NC2CCCCC2)c1-c1ccccc1F)c1cccc(Cl)c1` [I-171] stands greater than 200 µM; under `NC(=O)C[C@H](NC(=O)c1cn[nH]c1-c1cccc(C(N)=O)c1)c1cccc(Cl)c1` [I-350], 10 to 100 µM. On the same count and under the same terms, with `CC(c1cc(N2CCOCC2)ccn1)(C1CCCN(c2cccc(F)c2)C1)C(F)(F)F` (stereo not drawn) [I-263] the figure was greater than 200 µM; with `c1ccc2c(N3CCC[C@@H](Nc4nccc(N5CCOCC5)n4)C3)cccc2c1` [I-52], greater than 200 µM. Turning to `Fc1ccc(N2CCC[C@@H](Nc3cc(N4CCOCC4)ccn3)C2)cc1F` [I-74], the dissociation constant (Kd) fell in the range of 10 to 100 µM. Same read-out and setting: with `Fc1cccc(N2CCC[C@@H](N3CCc4c(N5CC6CC(C6)C5)ccnc43)C2)c1` [I-841] the figure was less than 10 µM. With `Fc1cccc(N2CCC[C@@H](Nc3cccc(N4CCOCC4)n3)C2)c1` [I-17], the Kd was 100 to 200 µM.

Take `NCCOCCOCCOCCC1CCN(c2ccnc(N3CC[C@@H]4[C@H]3CCCN4c3cccc(F)c3)c2)CC1` [I-649]: the equilibrium dissociation constant (Kd) is less than 10 µM.

The test is the same for the next values; noted with them: DCAF1-3 SPR (KD), 25 °C.
In turn, `Cc1c(F)ccc(F)c1-c1c(C(=O)N[C@@H](CC(N)=O)c2cccc(Cl)c2)cn(C)c1C#N` [I-887, (S)—N-(3-amino-1-(3-chlorophenyl)-3-oxopropyl)-5-cyano-4-(3,6-difluoro-2-methylphenyl)-1-methyl-1H-pyrrole-3-carboxamide] yielded a Kd of less than 10 µM.
